In patent publication US12661345B2, “Compositions for the treatment of hypertension” (The George Institute for Global Health, priority 2017, dated 2026):

How the values were obtained:
[1] = test system: participants with migraine; experiment: Office blood pressure in 12-week double blind randomized 3×3 factorial trial; assay type: in vivo, human
Method: (§1) There was a 4 week screening period and another 4-week post study drug observational period.
There was a 4-week screening period and another 4-week post study drug observational period.
(§2) Group 2 received the low-dose BP lowering combination and simvastatin (i.e., telmisartan 20 mg+amlodipine 2.5 mg+simvastatin). Group 3 received the low-dose BP lowering combination and placebo (i.e., telmisartan 20 mg+amlodipine 2.5 mg+placebo). […] Group 9 received double placebo.
Office BP was measured following the recommendations of the Australian National Heart Foundation. Participants were rested in the seated position for 5 minutes, an appropriate cuff size was selected and 3 measurements of BP were recorded using an Omron HEM907 monitor or equivalent validated automated digital BP monitor. Principles of automated office BP measurements were applied whereby the patient was left alone during BP recording.
(§3) All analyses of study outcomes were conducted according to the principle of intention-to-treat. The analyses of continuous outcomes such SBP and LDL-cholesterol at 12 weeks was performed using ANCOVA including the treatment arm and baseline values as a covariate. Additional analyses included interim measurements in a longitudinal model including treatment arm, visit, and treatment by visit interaction as well as the baseline measurement. Within-patient correlations were modelled using generalized estimating equations. A similar approach was applied to binary endpoints with log-binomial regression used in place of linear regression. There were also pre-defined subgroup analyses, baseline BP, baseline LDL, gender and age.

LDL = LDL laboratory test in the 3×3 factorial trial; assay type: in vivo, human; settings: Week 12 v/s Baseline
Method: as §1, §2
Change in DBP and SBP • 2. Change in LDL Secondary Outcomes: • 1. Tolerability: • a. […] Difference between groups in participant withdrawals from treatment • 2. Safety: Percentage with any severe adverse event (SAE) • 3. Medication adherence: self-reported measures, pill counts BP Measurement:
Potassium (K+), sodium (Na+), serum creatinine and LDL were measured at screening and at the 12-week end of treatment follow-up visit.
as §3

[2] = test system: participants with migraine; experiment: Subject status / participant withdrawals by visit in the 3×3 factorial trial
[3] = Week 12, BP arm versus placebo, interval in brackets
[4] = Week 16 (after 4-week post study drug period)
[5] = Week 16, BP arm versus placebo, interval in brackets
[6] = overall line, BP arm versus placebo, interval in brackets, footnote # not given

Compound: CC(C)NCC(O)COc1cccc2ccccc12 (centres unmarked) [Propranolol, propranolol]
- Diastolic Blood Pressure, Change from Baseline, min ([1]; Week 12): −22
- Systolic Blood Pressure, Change from Baseline, Mean (SD) ([1]; Week 12): 10 −10.9 (10.07)
- Systolic Blood Pressure, Change from Baseline, Q1 ([1]; Week 12): −17.0
- Systolic Blood Pressure, Change from Baseline, Q2 ([1]; Week 12): −12.8
- Systolic Blood Pressure, Change from Baseline, Q3 ([1]; Week 12): −4.0
- Systolic Blood Pressure, Change from Baseline, max ([1]; Week 12): 5
- Systolic Blood Pressure, Change from Baseline, min ([1]; Week 12): −30
- Diastolic Blood Pressure Mean (SD) ([1]; Week 12 (end of treatment)): 10 74.6 (15.07) mmHg
- Diastolic Blood Pressure Q1 ([1]; Week 12 (end of treatment)): 60.7 mmHg
- Diastolic Blood Pressure Q2 ([1]; Week 12 (end of treatment)): 70.0 mmHg
- Diastolic Blood Pressure Q3 ([1]; Week 12 (end of treatment)): 85.7 mmHg
- Diastolic Blood Pressure max ([1]; Week 12 (end of treatment)): 97 mmHg
- Diastolic Blood Pressure min ([1]; Week 12 (end of treatment)): 54 mmHg
- Systolic Blood Pressure Mean (SD) ([1]; Week 12 (end of treatment)): 10 119.5 (17.83) mmHg
- Systolic Blood Pressure Q2 ([1]; Week 12 (end of treatment)): 117.5 mmHg
- Systolic Blood Pressure Q3 ([1]; Week 12 (end of treatment)): 135.3 mmHg
- Systolic Blood Pressure max ([1]; Week 12 (end of treatment)): 145 mmHg
- Systolic Blood Pressure min ([1]; Week 12 (end of treatment)): 88 mmHg
- Diastolic Blood Pressure Mean difference [1, 3]: −3.50 (−14.77, 7.77) mmHg
- Systolic Blood Pressure Mean difference [1, 3]: −1.77 (−14.87, 11.34) mmHg
- Diastolic Blood Pressure, Change from Baseline, Mean difference ([1]; Week 12, interval in brackets): −7.50 (−13.65, −1.35)
- Systolic Blood Pressure, Change from Baseline, Mean difference ([1]; Week 12, interval in brackets): −8.40 (−16.80, −0.00)
- Change in DBP from baseline to 12 weeks Mean (SD) ([1]; Week 12 v/s Baseline): 10 −10.5 (6.44) mmHg
- Change in DBP from baseline to 12 weeks Q1 ([1]; Week 12 v/s Baseline): −16.7 mmHg
- Change in DBP from baseline to 12 weeks Q2 ([1]; Week 12 v/s Baseline): −9.3 mmHg
- Change in DBP from baseline to 12 weeks Q3 ([1]; Week 12 v/s Baseline): −4.3 mmHg
- Change in DBP from baseline to 12 weeks max ([1]; Week 12 v/s Baseline): −3 mmHg
- Change in DBP from baseline to 12 weeks min ([1]; Week 12 v/s Baseline): −22 mmHg
- Change in SBP from baseline to 12 weeks Mean (SD) ([1]; Week 12 v/s Baseline): 10 −10.9 (10.07) mmHg
- Change in SBP from baseline to 12 weeks Q1 ([1]; Week 12 v/s Baseline): −17.0 mmHg
- Change in SBP from baseline to 12 weeks Q2 ([1]; Week 12 v/s Baseline): −12.8 mmHg
- Change in SBP from baseline to 12 weeks Q3 ([1]; Week 12 v/s Baseline): −4.0 mmHg
- Change in SBP from baseline to 12 weeks max ([1]; Week 12 v/s Baseline): 5 mmHg
- Change in SBP from baseline to 12 weeks min ([1]; Week 12 v/s Baseline): −30 mmHg
- Diastolic Blood Pressure, Change from Baseline, Mean (SD) ([1]; Week 16): 9 −3.9 (4.82)
- Diastolic Blood Pressure, Change from Baseline, Q1 ([1]; Week 16): −7.7
- Diastolic Blood Pressure, Change from Baseline, Q2 ([1]; Week 16): −2.7
- Diastolic Blood Pressure, Change from Baseline, Q3 ([1]; Week 16): −0.7
- Diastolic Blood Pressure, Change from Baseline, max ([1]; Week 16): 4
- Diastolic Blood Pressure, Change from Baseline, min ([1]; Week 16): −11
- Systolic Blood Pressure, Change from Baseline, Mean (SD) ([1]; Week 16): 9 −2.3 (5.95)
- Systolic Blood Pressure, Change from Baseline, Q1 ([1]; Week 16): −6.3
- Systolic Blood Pressure, Change from Baseline, Q2 ([1]; Week 16): −3.3
- Systolic Blood Pressure, Change from Baseline, Q3 ([1]; Week 16): 2.3
- Systolic Blood Pressure, Change from Baseline, max ([1]; Week 16): 6
- Systolic Blood Pressure, Change from Baseline, min ([1]; Week 16): −11
- Diastolic Blood Pressure Mean (SD) [1, 4]: 9 82.0 (11.14) mmHg
- Diastolic Blood Pressure Q1 [1, 4]: 73.3 mmHg
- Diastolic Blood Pressure Q2 [1, 4]: 82.3 mmHg
- Diastolic Blood Pressure Q3 [1, 4]: 87.3 mmHg
- Diastolic Blood Pressure min [1, 4]: 70 mmHg
- Systolic Blood Pressure Mean (SD) [1, 4]: 9 129.6 (15.12) mmHg
- Systolic Blood Pressure Q1 [1, 4]: 119.7 mmHg
- Systolic Blood Pressure Q2 [1, 4]: 129.3 mmHg
- Systolic Blood Pressure Q3 [1, 4]: 136.7 mmHg
- Systolic Blood Pressure max [1, 4]: 159 mmHg
- Diastolic Blood Pressure Mean difference [1, 5]: 0.97 (−7.91, 9.85) mmHg
- Systolic Blood Pressure Mean difference [1, 5]: 8.19 (−2.91, 19.28) mmHg
- Diastolic Blood Pressure, Change from Baseline, Mean difference ([1]; Week 16, interval in brackets): −3.93 (−9.96, 2.11)
- Systolic Blood Pressure, Change from Baseline, Mean difference ([1]; Week 16, interval in brackets): 0.10 (−6.97, 7.17)
- Diastolic Blood Pressure # Mean difference [1, 6]: −3.57 (−11.29, 4.16) mmHg
- Systolic Blood Pressure # Mean difference [1, 6]: −1.68 (−12.28, 8.92) mmHg
- Change in LDL from baseline to 12 weeks Mean (SD) (LDL): 10 −0.9 (1.03) mmol/l
- Change in LDL from baseline to 12 weeks Q1 (LDL): -1.3 mmol/L
- Change in LDL from baseline to 12 weeks Q2 (LDL): -0.7 mmol/L
- Change in LDL from baseline to 12 weeks Q3 (LDL): -0.2 mmol/L
- Change in LDL from baseline to 12 weeks max (LDL): 0 mmol/L
- Change in LDL from baseline to 12 weeks min (LDL): -3 mmol/L
- Discontinuing: Deceased (percent) ([2]; Week 4): (0.0%)
- Discontinuing: Deceased (percent) ([2]; Week 8): (0.0%)
- Discontinuing: Deceased (percent) ([2]; Week 12): (0.0%)
